Data reported in publication PMC4767605 (Cancer chemotherapy and pharmacology, 2016).
“And” between values parts separate entries of the source, which are not always exact repeats. Identical values can stand only once. Like-named read-outs stand apart in the source and are kept apart here.

[1] = ASP9853 Lead-in (n=20), single agent
[2] = Cohort 1 (n=6): ASP9853 25 mg + docetaxel 60 mg/m^2
[3] = Cohort 2 (n=4): ASP9853 25 mg + docetaxel 75 mg/m^2
[4] = Cohort 3 (n=3): ASP9853 37.5 mg + docetaxel 60 mg/m^2

Structure (SMILES): O.O.O=C(/C=C/c1ccc(Cl)cc1)N[C@@H](Cc1ccccn1)C(=O)NCC(=O)N1CCC(Oc2cc(C(F)(F)F)ncn2)CC1 [ASP9853, (2E)-3-(4-chlorophenyl)-N-[(1S)-2-oxo-2-{[2-oxo-2-(4-{[6-(trifluoromethyl)-4-pyrimidinyl]oxy}-1-piperidinyl)ethyl]amino}-1-(2-pyridinylmethyl)ethyl]acrylamide dehydrate]
- Toxicity noted in single-patient Cohort 1 (did not meet DLT criteria) (ASP9853 25 mg + docetaxel 60 mg/m^2): Grade 3 neutropenia
- Changes in liver function tests, vital signs, or electrocardiogram (ECGs) (ASP9853 + docetaxel): No clinically significant changes from baseline
- Neutropenia during treatment (laboratory evaluation) (ASP9853 + docetaxel): All patients experienced neutropenia
- Patients with AEs that led to treatment discontinuation (ASP9853 + docetaxel, all cohorts): Three
- AE potentially related to ASP9853: Anemia; Grade 3/4 [1]: 0 n (%)
- AE potentially related to ASP9853: Anemia; Grade All [1]: 0 n (%)
- AE potentially related to ASP9853: Asthenia; Grade 3/4 [1]: 0 n (%)
- AE potentially related to ASP9853: Asthenia; Grade All [1]: 1 (5) n (%)
- AE potentially related to ASP9853: Constipation; Grade 3/4 [1]: 0 n (%)
- AE potentially related to ASP9853: Constipation; Grade All [1]: 0 n (%)
- AE potentially related to ASP9853: Decreased appetite; Grade 3/4 [1]: 0 n (%)
- AE potentially related to ASP9853: Decreased appetite; Grade All [1]: 0 n (%)
- AE potentially related to ASP9853: Diarrhea; Grade 3/4 (only Grade 3) [1]: 0 n (%)
- AE potentially related to ASP9853: Diarrhea; Grade All [1]: 0 n (%)
- AE potentially related to ASP9853: Dizziness; Grade 3/4 [1]: 0 n (%)
- AE potentially related to ASP9853: Dizziness; Grade All [1]: 0 n (%)
- AE potentially related to ASP9853: Fatigue; Grade 3/4 (only Grade 3) [1]: 0 n (%)
- AE potentially related to ASP9853: Fatigue; Grade All [1]: 0 n (%)
- AE potentially related to ASP9853: Febrile neutropenia; Grade 3/4 [1]: 0 n (%)
- AE potentially related to ASP9853: Febrile neutropenia; Grade All [1]: 0 n (%)
- AE potentially related to ASP9853: Nausea; Grade 3/4 [1]: 0 n (%)
- AE potentially related to ASP9853: Nausea; Grade All [1]: 1(5) n (%)
- AE potentially related to ASP9853: Neutropenia; Grade 3/4 [1]: 0 n (%)
- AE potentially related to ASP9853: Neutropenia; Grade All [1]: 0 n (%)
- AE potentially related to ASP9853: Neutrophil count decreased; Grade 3/4 [1]: 0 n (%)
- AE potentially related to ASP9853: Neutrophil count decreased; Grade All [1]: 0 n (%)
- AE potentially related to ASP9853: Overall; Grade 3/4 [1]: 0 n (%)
- AE potentially related to ASP9853: Overall; Grade All [1]: 7 [35%] n (%) and 7 (35) n (%)
- AE potentially related to ASP9853: Vomiting; Grade 3/4 [1]: 0 n (%)
- AE potentially related to ASP9853: Vomiting; Grade All [1]: 1 (5) n (%)
- AE potentially related to ASP9853: White blood cell count decreased; Grade All [1]: 0 n (%)
- AE potentially related to ASP9853: Anemia; Grade 3/4 [2]: 0 n (%)
- AE potentially related to ASP9853: Anemia; Grade All [2]: 1 (17) n (%)
- AE potentially related to ASP9853: Asthenia; Grade 3/4 [2]: 0 n (%)
- AE potentially related to ASP9853: Asthenia; Grade All [2]: 0 n (%)
- AE potentially related to ASP9853: Constipation; Grade 3/4 [2]: 0 n (%)
- AE potentially related to ASP9853: Constipation; Grade All [2]: 1 (17) n (%)
- AE potentially related to ASP9853: Decreased appetite; Grade 3/4 [2]: 0 n (%)
- AE potentially related to ASP9853: Decreased appetite; Grade All [2]: 0 n (%)
- AE potentially related to ASP9853: Diarrhea; Grade 3/4 (only Grade 3) [2]: 0 n (%)
- AE potentially related to ASP9853: Diarrhea; Grade All [2]: 1 (17) n (%)
- AE potentially related to ASP9853: Dizziness; Grade 3/4 [2]: 0 n (%)
- AE potentially related to ASP9853: Dizziness; Grade All [2]: 0 n (%)
- AE potentially related to ASP9853: Fatigue; Grade 3/4 (only Grade 3) [2]: 0 n (%)
- AE potentially related to ASP9853: Fatigue; Grade All [2]: 2 (33) n (%)
- AE potentially related to ASP9853: Febrile neutropenia; Grade 3/4 [2]: 0 n (%)
- AE potentially related to ASP9853: Febrile neutropenia; Grade All [2]: 0 n (%)
- AE potentially related to ASP9853: Nausea; Grade 3/4 [2]: 0 n (%)
- AE potentially related to ASP9853: Nausea; Grade All [2]: 0 n (%)
- AE potentially related to ASP9853: Neutropenia; Grade 3/4 [2]: 1 (17) n (%)
- AE potentially related to ASP9853: Neutropenia; Grade All [2]: 1 (17) n (%)
- AE potentially related to ASP9853: Neutrophil count decreased; Grade 3/4 [2]: 0 n (%)
- AE potentially related to ASP9853: Neutrophil count decreased; Grade All [2]: 0 n (%)
- AE potentially related to ASP9853: Overall; Grade 3/4 [2]: 2 (33) n (%)
- AE potentially related to ASP9853: Overall; Grade All [2]: 5 (83) n (%)
- AE potentially related to ASP9853: Vomiting; Grade 3/4 [2]: 0 n (%)
- AE potentially related to ASP9853: Vomiting; Grade All [2]: 0 n (%)
- AE potentially related to ASP9853: White blood cell count decreased; Grade All [2]: 1 (17) n (%)
- SAE considered related to ASP9853: diarrhea (Cohort 2): 1 n
- SAE considered related to ASP9853: febrile neutropenia (Cohort 2): 2 n
- AE potentially related to ASP9853: Anemia; Grade 3/4 [3]: 0 n (%)
- AE potentially related to ASP9853: Anemia; Grade All [3]: 1 (25) n (%)
- AE potentially related to ASP9853: Asthenia; Grade 3/4 [3]: 0 n (%)
- AE potentially related to ASP9853: Asthenia; Grade All [3]: 2 (50) n (%)
- AE potentially related to ASP9853: Constipation; Grade 3/4 [3]: 0 n (%)
- AE potentially related to ASP9853: Constipation; Grade All [3]: 0 n (%)
- AE potentially related to ASP9853: Decreased appetite; Grade 3/4 [3]: 0 n (%)
- AE potentially related to ASP9853: Decreased appetite; Grade All [3]: 1 (25) n (%)
- AE potentially related to ASP9853: Diarrhea; Grade 3/4 (only Grade 3) [3]: 1 (25) n (%)
- AE potentially related to ASP9853: Diarrhea; Grade All [3]: 2 (50) n (%)
- AE potentially related to ASP9853: Dizziness; Grade 3/4 [3]: 0 n (%)
- AE potentially related to ASP9853: Dizziness; Grade All [3]: 0 n (%)
- AE potentially related to ASP9853: Fatigue; Grade 3/4 (only Grade 3) [3]: 1 (25) n (%)
- AE potentially related to ASP9853: Fatigue; Grade All [3]: 3 (75) n (%)
- AE potentially related to ASP9853: Febrile neutropenia; Grade 3/4 [3]: 2 (50) n (%)
- AE potentially related to ASP9853: Febrile neutropenia; Grade All [3]: 2 (50) n (%)
- AE potentially related to ASP9853: Nausea; Grade 3/4 [3]: 0 n (%)
- AE potentially related to ASP9853: Nausea; Grade All [3]: 2 (50) n (%)
- AE potentially related to ASP9853: Neutropenia; Grade 3/4 [3]: 0 n (%)
- AE potentially related to ASP9853: Neutropenia; Grade All [3]: 0 n (%)
- AE potentially related to ASP9853: Neutrophil count decreased; Grade 3/4 [3]: 0 n (%)
- AE potentially related to ASP9853: Neutrophil count decreased; Grade All [3]: 0 n (%)
- AE potentially related to ASP9853: Overall; Grade 3/4 [3]: 3 (75) n (%)
- AE potentially related to ASP9853: Overall; Grade All [3]: 3 (75) n (%)
- AE potentially related to ASP9853: Vomiting; Grade 3/4 [3]: 0 n (%)
- AE potentially related to ASP9853: Vomiting; Grade All [3]: 3 (75) n (%)
- AE potentially related to ASP9853: White blood cell count decreased; Grade All [3]: 0 n (%)
- AE potentially related to ASP9853: Anemia; Grade 3/4 [4]: 0 n (%)
- AE potentially related to ASP9853: Anemia; Grade All [4]: 0 n (%)
- AE potentially related to ASP9853: Asthenia; Grade 3/4 [4]: 0 n (%)
- AE potentially related to ASP9853: Asthenia; Grade All [4]: 0 n (%)
- AE potentially related to ASP9853: Constipation; Grade 3/4 [4]: 0 n (%)
- AE potentially related to ASP9853: Constipation; Grade All [4]: 1 (33) n (%)
- AE potentially related to ASP9853: Decreased appetite; Grade 3/4 [4]: 0 n (%)
